Data: patent US20250382305A1 (PTC THERAPEUTICS, INC., priority 2022, published 2025)
pIC50: −log10 of the molar value.

How the values were obtained:
[1] = test system: Total ATXN3 (tATXN3) protein; assay: Endogenous Total ATXN3 (tATXN3) Protein Assay (MSD immunoassay of cell lysates); type: cell-based; details: average IC50, total ATXN3 protein in cell lysate after 48 h with compound (Table 1)
Outline: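 By electrochemiluminescent MSD sandwich immunoassay (mouse monoclonal capture, rabbit monoclonal and SULFO-TAG anti-rabbit detection), endogenous ATXN3 was quantified in lysates of cells treated 48 h at 37° C at 10,000 cells/well. Treatment used a 7-point 3.16-fold duplicate dilution series, with average IC50 grouped into star categories.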

ATXN3 pre-mRNA = assay: RT-qPCR Assay to Quantify Exon 4 Skipping in ATXN3 pre-mRNA in Cells; type: cell-based; details: percent exon 4 skipping in ATXN3 pre-mRNA, RT-qPCR of cell lysates; average IC50
Outline: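 IC50 derives from a dose-response fit of percent exon 4 skipping, quantified by RT-qPCR on crude lysates. Compounds tested as 7-point 3.16-fold dilutions in duplicate; cells (10,000/well) were exposed for 24 h at 37 °C before lysis.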

## CCc1c([C@@H]2CCCC[C@H]2N)sc2c(NCc3cccs3)cc(Cl)nc12 (single isomer, unassigned) [Compound 39, 2-((1R,2R)-2-aminocyclohexyl)-5-chloro-3-ethyl-N-(thiophen-2-ylmethyl)thieno[3,2-b]pyridin-7-amine or 2-((1S,2S)-2-aminocyclohexyl)-5-chloro-3-ethyl-N-(thiophen-2-ylmethyl)thieno[3,2-b]pyridine-7-amine]
[1]
  pIC50: < 6.00
ATXN3 pre-mRNA
  pIC50: < 6.00

## CCc1c([C@H]2CCCCCC[C@@H]2N)sc2c(NCc3cccs3)cc(Cl)nc12 [Compound 164, 2-((1S,2S)-2-aminocyclooctyl)-5-chloro-3-ethyl-N-(thiophen-2-ylmethyl)thieno[3,2-b]pyridin-7-amine]
[1]
  pIC50: < 6.00
ATXN3 pre-mRNA
  pIC50: 6.00 to 6.52

## CC#CCNc1cc(Cl)nc2c(Br)c([C@@H]3CCCC[C@H]3N)sc12 [Compound 428, 2-((1R,2R)-2-aminocyclohexyl)-3-bromo-N-(but-2-yn-1-yl)-5-chlorothieno[3,2-b]pyridin-7-amine]
[1]
  pIC50: 6.00 to 6.52
ATXN3 pre-mRNA
  pIC50: 6.00 to 6.52

## 5-chloro-3-iodo-2-((1R,6R)-6-(methylamino)cyclohex-3-en-1-yl)-N-(thiophen-2-ylmethyl)thieno[3,2-b]pyridin-7-amine and 5-chloro-3-iodo-2-((1S,6S)-6-(methylamino)cyclohex-3-en-1-yl)-N-(thiophen-2-ylmethyl)thieno[3,2-b]pyridin-7-amine [Compound 387]
[1]
  pIC50: 6.52 to 7.52
ATXN3 pre-mRNA
  pIC50: 6.00 to 6.52

## N[C@@H]1CC(F)(F)CC[C@@H]1c1sc2c(NCc3cccs3)cc(Cl)nc2c1Br.N[C@H]1CC(F)(F)CC[C@H]1c1sc2c(NCc3cccs3)cc(Cl)nc2c1Br (mixture of isomers) [Compound 30, 2-((1R,2S)-2-amino-4,4-difluorocyclohexyl)-3-bromo-5-chloro-N-(thiophen-2-ylmethyl)thieno[3,2-b]pyridin-7-amine and 2-((1S,2R)-2-amino-4,4-difluorocyclohexyl)-3-bromo-5-chloro-N-(thiophen-2-ylmethyl)thieno[3,2-b]pyridin-7-amine]
[1]
  pIC50: < 6.00
ATXN3 pre-mRNA
  pIC50: < 6.00

## N[C@@H]1CCCO[C@H]1c1sc2c(NCc3cccs3)cc(Cl)nc2c1Cl [Compound 16, 2-((2R,3R)-3-aminotetrahydro-2H-pyran-2-yl)-3,5-dichloro-N-(thiophen-2-ylmethyl)thieno[3,2-b]pyridin-7-amine]
[1]
  pIC50: < 6.00
ATXN3 pre-mRNA
  pIC50: < 6.00

## 2-((1R,2S,6R)-2-amino-6-fluorocyclohexyl)-3-bromo-5-chloro-N-(thiophen-2-ylmethyl)thieno[3,2-b]pyridin-7-amine and 2-((1S,2R,6S)-2-amino-6-fluorocyclohexyl)-3-bromo-5-chloro-N-(thiophen-2-ylmethyl)thieno[3,2-b]pyridin-7-amine [Compound 181]
[1]
  pIC50: ≥ 7.52
ATXN3 pre-mRNA
  pIC50: ≥ 7.52

## (1R,2R,3S)-2-amino-3-(3-bromo-5-chloro-7-((thiophen-2-ylmethyl)amino)thieno[3,2-b]pyridin-2-yl)cyclohexan-1-ol and (1S,2S,3R)-2-amino-3-(3-bromo-5-chloro-7-((thiophen-2-ylmethyl)amino)thieno[3,2-b]pyridin-2-yl)cyclohexan-1-ol [Compound 228]
[1]
  pIC50: ≥ 7.52
ATXN3 pre-mRNA
  pIC50: ≥ 7.52

## C[C@@H]1C=C[C@H](C)[C@H](N)[C@H]1c1sc2c(NCc3ccco3)cc(Cl)nc2c1Cl [Compound 450, 2-((1S,2R,5S,6S)-6-amino-2,5-dimethylcyclohex-3-en-1-yl)-3,5-dichloro-N-(furan-2-ylmethyl)thieno[3,2-b]pyridin-7-amine]
[1]
  pIC50: 6.00 to 6.52
ATXN3 pre-mRNA
  pIC50: 6.00 to 6.52

## N[C@H]1CCCC[C@@H]1c1sc2c(NCc3cccs3)cc(Cl)nc2c1Cl (single isomer, unassigned) [Compound 34, 2-((1S,2S)-2-aminocyclohexyl)-3,5-dichloro-N-(thiophen-2-ylmethyl)thieno[3,2-b]pyridin-7-amine or 2-((1R,2R)-2-aminocyclohexyl)-3,5-dichloro-N-(thiophen-2-ylmethyl)thieno[3,2-b]pyridine-7-amine]
[1]
  pIC50: ≥ 7.52
ATXN3 pre-mRNA
  pIC50: ≥ 7.52

## N[C@@H]1CCCC[C@H]1c1sc2c(NCc3ccccc3)nc(Cl)nc2c1Br [Compound 66, 6-((1R,2R)-2-aminocyclohexyl)-N-benzyl-7-bromo-2-chlorothieno[3,2-d]pyrimidin-4-amine]
[1]
  pIC50: < 6.00
ATXN3 pre-mRNA
  pIC50: < 6.00

## 6-((1S,6S)-6-aminocyclohex-3-en-1-yl)-4-((furan-2-ylmethyl)amino)-7-methylthieno[3,2-d]pyrimidine-2-carbonitrile [Compound 282]
[1]
  pIC50: 6.52 to 7.52
ATXN3 pre-mRNA
  pIC50: 6.52 to 7.52

## N[C@H]1CCC[C@@H]1c1sc2c(NCc3ccco3)cc(Cl)nc2c1Cl [Compound 117, 2-((1S,2S)-2-aminocyclopentyl)-3,5-dichloro-N-(furan-2-ylmethyl)thieno[3,2-b]pyridin-7-amine]
[1]
  pIC50: ≥ 7.52
ATXN3 pre-mRNA
  pIC50: ≥ 7.52

## N[C@H]1CC=CC[C@@H]1c1sc2c(NCc3nccs3)nc(Cl)nc2c1Cl [Compound 340, 6-((1S,6S)-6-aminocyclohex-3-en-1-yl)-2,7-dichloro-N-(thiazol-2-ylmethyl)thieno[3,2-d]pyrimidin-4-amine]
[1]
  pIC50: 6.52 to 7.52
ATXN3 pre-mRNA
  pIC50: 6.52 to 7.52

## N[C@H]1CC=CC[C@@H]1c1sc2c(NCc3cccs3)cc(Cl)nc2c1C#CC[C@@H](O)CO [Compound 211, (R)-5-(2-((1S,6S)-6-aminocyclohex-3-en-1-yl)-5-chloro-7-((thiophen-2-ylmethyl)amino)thieno[3,2-b]pyridin-3-yl)pent-4-yne-1,2-diol]
[1]
  pIC50: ≥ 7.52
ATXN3 pre-mRNA
  pIC50: ≥ 7.52

## 2-((2R,3S)-3-aminopiperidin-2-yl)-3-bromo-5-chloro-N-(thiophen-2-ylmethyl)thieno[3,2-b]pyridin-7-amine and 2-((2S,3R)-3-aminopiperidin-2-yl)-3-bromo-5-chloro-N-(thiophen-2-ylmethyl)thieno[3,2-b]pyridin-7-amine [Compound 46]
[1]
  pIC50: < 6.00
ATXN3 pre-mRNA
  pIC50: < 6.00

## N[C@H]1CC=CC[C@@H]1c1sc2c(NCc3cccs3)cc(Cl)nc2c1C#CCCCCCO [Compound 320, 7-(2-((1S,6S)-6-aminocyclohex-3-en-1-yl)-5-chloro-7-((thiophen-2-ylmethyl)amino)thieno[3,2-b]pyridin-3-yl)hept-6-yn-1-ol]
[1]
  pIC50: 6.52 to 7.52
ATXN3 pre-mRNA
  pIC50: 6.52 to 7.52

## (2R,3S)-2-amino-3-(3-bromo-5-chloro-7-((thiophen-2-ylmethyl)amino)thieno[3,2-b]pyridin-2-yl)cyclohexan-1-one and (2S,3R)-2-amino-3-(3-bromo-5-chloro-7-((thiophen-2-ylmethyl)amino)thieno[3,2-b]pyridin-2-yl)cyclohexan-1-one [Compound 192]
[1]
  pIC50: ≥ 7.52
ATXN3 pre-mRNA
  pIC50: ≥ 7.52

## N[C@@H]1CCCCCC[C@@H]1c1cc2nc(Cl)cc(NCc3cccs3)c2s1 [Compound 106, 2-((1S,2R)-2-aminocyclooctyl)-5-chloro-N-(thiophen-2-ylmethyl)thieno[3,2-b]pyridin-7-amine]
[1]
  pIC50: < 6.00
ATXN3 pre-mRNA
  pIC50: < 6.00

## Cc1c([C@H]2CCCC[C@@H]2N)sc2c(NCc3ccco3)cc(Cl)nc12 [Compound 231, 2-((1S,2S)-2-aminocyclohexyl)-5-chloro-N-(furan-2-ylmethyl)-3-methylthieno[3,2-b]pyridin-7-amine]
[1]
  pIC50: ≥ 7.52
ATXN3 pre-mRNA
  pIC50: ≥ 7.52
